Source: patent publication US10905658B2, “Methods and compositions for detecting hematopoietic and lymphoid tissue cancer cells” (WAYNE STATE UNIVERSITY, priority 2016, dated 2021)

Columns and labels:
[1] = system: B-NHL cell lines; assay: Treatment of B-NHL cell lines with alkoxyamines (cell killing); type: cell-based; details: for killing of a B-NHL cell line (cytotoxicity): comparison of alkoxyamines AA3 through AA7, FIG. 17
[2] = system: APE-1; assay: AP endonuclease activity assay; type: biochemical, mammalian; details: for protection of AP sites against cleavage by APE-1: alkoxyamine reaction at pH 5
Experimental: The cleavage activity of AP endonuclease APE-1 (1 unit, New England Biolabs) was assayed using a 6-FAM labeled oligomer (4 pmol) containing a single uracil. The uracil was excised using UDG to create an AP site and the AP site was labeled with an alkoxyamine as described above. The APE-1 reaction was per-formed in the reaction buffer (50 mM potassium acetate, 20 mM Tris-acetate, 10 mM magnesium acetate, 1 mM DTT, pH 7.9) at 37° C. for 1 h. DNA products were stabilized by incubation with NaBH4 and analyzed by gel electrophoresis as described above.

[3] = system: B-NHL cell lines; assay: Treatment of B-NHL cell lines with alkoxyamines (cell killing); type: cell-based; details: for effect on cell growth / cell death: B-NHL cells; for cell death: even at 10 mM
Experimental: A 24 hr treatment with 1 mM AA3 killed greater than 40% cells in each culture and at 10 mM concentration, >70% cells were killed (FIG. 11). […] Therefore, AA3 cytocidal to B-NHL cells while MX and ARP are only cytostatic.

[4] = system: HeLa cells; assay: Killing of HeLa cells by MMS combined with MX or AA3 (trypan blue exclusion); type: cell-based, human
Experimental: Methyl methanesulfonate (MMS, Sigma-Aldrich) was diluted in phosphate buffered saline. MX or AA3 was dissolved in sterile water, and the pH was adjusted to 7 using NaOH solution. The solutions of all the chemicals were freshly prepared for each cytotoxicity experiment. HeLa cells were seeded in 48-well tissue culture plates at 3×10^4 to 6×10^4 cell/mL and grown overnight in DMEM with 10% fetal bovine serum (HyClone). Cells were treated with MMS or as a combination of MMS with MX or AA3 at indicated concentrations and harvested after 24 h. The viability of the cells was assessed via trypan blue (HyClone) exclusion assay performed using TC20 Automated Cell Counter (Bio-Rad Laboratories).

[5] = system: AP sites in DNA; assay: AP site labeling reaction on synthetic oligomer (gel shift, click reaction); type: biochemical; details: for product formation: pH 7
Experimental: A 6-carboxyfluorescein-(6-FAM-) labeled oligonucleotide U-17-mer (5-6-FAM-ATTATTAUCCATTTATT-3′, […]) was used for the AP site labeling reaction. The oligomer (4 pmol) was incubated with E. coli uracil DNA glycosylase (UDG, 1 unit, New England Labs) at 37° C. for 30 min in reaction buffer containing 20 mM Tris-HCl (pH 8.0), 1 mM DTT and 1 mM EDTA to create AP site containing DNA. The alkoxyamine [methoxyamine, MX (Sigma-Aldrich); aldehyde reactive probe, ARP (Dojindo Laboratories) or AA3] was added into the oligomer solution at indicated concentrations, and incubated at 37° C. for another 30 min. In some experiments, the pH of the solution was adjusted with HCl or NaOH solution following removal of uracil and the pH was confirmed using pH paper. Following the reaction of alkoxyamine, unlabeled AP sites were reduced by the addition of NaBH4 (Sigma-Aldrich) to 100 mM and further incubation for 5 min. If this step was omitted, we observed significant degradation of the DNA. The reactions were stopped by the addition of formamide, loading dye and heating to 95° C. for5 min. The DNAs were electrophoresed in 20% polyacrylamide gels containing 7 M urea and scanned using a Typhoon 9210 phosphorimager (GE Healthcare). Product bands in images were quantified using ImageQuant software. In experiments involving competition between alkoxyamines, AP site containing DNA was reacted with the first alkoxyamine at 37° C. for 30 min. This was followed by the addition of the second alkoxyamine and incubation for an additional 30 min. The reactions were stopped and the products were analyzed as described above.
Biotin azide or Cy5 azide (Lumiprobe) was added to a solution of AA3-linked 17-mer to 0.5 mM followed by the addition of a freshly prepared solution of CuBr/TBTA (1:3 in DMSO/t-BuOH 3:1, 0.5 mM, Sigma-Aldrich). The mixture was shaken at 45° C. for 1 h. The DNAs were electrophoresed and analyzed as described above.

C#CCCON [AA5, O-(but-3-yn-1-yl)hydroxylamine]
effectiveness in killing relative to AA3 ([1]; a B-NHL cell line): somewhat less effective
killing of a B-NHL cell line (cytotoxicity) [1]: killed these cells

CON [MX, methoxyamine]
protection of AP sites against cleavage by APE-1 [2]: ~100%
protection of AP sites against APE-1 ([2]; alkoxyamine reaction at pH 7): protected an overwhelming majority of AP sites
cytocidal or cytostatic to B-NHL cells [3]: cytostatic
effect on cell growth [3]: temporary pause in cell growth
cell death [3]: did not result in cell death
enhancement of killing by MMS ([4]; 10 mM with MMS, six independent cultures): did enhance killing by MMS

C=CCON [AA7, O-allylhydroxylamine]
killing of a B-NHL cell line (cytotoxicity) [1]: cytotoxic

CCCON [AA4, O-(n-propyl)hydroxylamine]
killing of a B-NHL cell line ([1]; even at 10 mM, FIG. 17): did not significantly kill the cells

COS(C)(=O)=O [MMS, Methyl methanesulfonate]
loss of viability ([4]; MMS alone, 50 µM, after one day): very little loss of viability

NOCCC(=O)NNC(=O)CCCC[C@@H]1SC[C@@H]2NC(=O)N[C@@H]21 [ARP, N′-(3-(aminooxy)propanoyl)-5-((3aS,4S,6aR)-2-oxohexahydro-H-thieno[3,4-d]imidazol-4-yl)pentanehydrazide]
substrate converted to product ([5]; 0.2 μM oligomer, 5 mM ARP, pH 7 or 8): < 20%
product formation ([5]; 5 mM): 13%
product formation ([5]; 10 mM): 20%
DNA cleaved by APE-1 ([2]; AP sites reacted with alkoxyamine at pH 7): about 90%
protection of AP sites against cleavage by APE-1 [2]: 74%
cytocidal or cytostatic to B-NHL cells [3]: cytostatic
effect on cell growth [3]: temporary pause in cell growth
cell death [3]: did not result in cell death
